{"source": "patent US11766430B2", "about": "“Methods of using a phenoxypropylamine compound to treat pain” (Minerva Neurosciences, Inc., priority 2018, dated 2023)", "assay_type_in_all_cases": "in vivo, Male Sprague Dawley rats", "key": {"[1]": {"system": "paclitaxel-induced peripheral neuropathic pain in rats", "test": "Reversal of paclitaxel-induced peripheral neuropathic pain, paw withdrawal threshold, chronic administration (Example 6)", "details": "hydrochloride; for PWT compared to vehicle (in words): days 14, 21 and 28, 2 hours post dosing", "method": "(§1) Male Sprague Dawley rats from Envigo were used in the study. Animals were received at approximately 250 g and housed 3 per cage upon arrival. All rats were examined, handled, and weighed prior to initiation of the study to assure adequate health and suitability. During the course of the study, 12/12 light/dark cycles was maintained. The room temperature was be maintained between 20 and 23° C. with a relative humidity maintained around 50%. Chow and water was provided ad libitum for the duration of the study. All testing was performed during the animal's light cycle phase.\nPaclitaxel (2 mg/kg) was purchased from Biolyse Pharma and injected i.p. on four alternate days (day 1, 3, 5 and 7) for a total of 4 injections at a dose volume of 1 mL/kg.\nGabapentin (100 mg/kg) was dissolved in saline and administered orally at a dose volume of 1 mL/kg. For prevention study, gabapentin was administered on day 14, sixty minutes prior to test. For reversal study, gabapentin was administered once daily for 2 weeks. On test days it was administered 60 minutes prior to test.\nReversal study: MIN-117 (1, 3 and 10 mg/kg) was formulated in 0.5% (w/v) hydroxypropylmethyl cellulose (HPMC) 8°-120 centipoises in water and administered i.p once daily for 2 weeks at a dose volume of 1 mL/kg. On test days, MIN-117 was administered 2 hours prior to test.\nRats were administered paclitaxel (2 mg/kg) on four alternate days (days 1, 3, 5 and 7). Baseline and post treatment Paw Withdrawal Threshold (PWT) were evaluated using von Frey filaments (Semmes-Weinstein filaments, Stoelting, Wood Dale, Ill., USA) of varying stiffness (0.4, 0.7, 1.2, 2.0, 3.6, 5.5, 8.5, 10, 15, 26 g). Animals were placed on a perforated metallic platform and allowed to acclimate to their surroundings for a minimum of 15 minutes before each test session. Each filament was presented perpendicular to the plantar surface with sufficient force to cause slight buckling against the paw, and then held until a positive response is noted (paw sharply withdrawn). As described by Chaplan et al. 1994, once the threshold was crossed, the 2 responses straddling the threshold are retrospectively designated as the first 2 responses. Four additional responses were measured to stimuli varied sequentially up or down based on the animal's response. The 6 responses in the immediate vicinity of the threshold were used to calculate the 50% g threshold: 50% g threshold=(10^[Xf+k*d])/10000 Xf is the final filament used (in log units). The parameter k is from the Appendix 1 in Chaplan and was determined by the pattern of the von Frey responses (e.g. OXOXOX where ‘O’ indicates no response and ‘X’ denotes a withdrawal). The parameter d is the difference between stimuli which Chaplan used a constant d=0.224. To accommodate for the use of the 10 g and 26 g filaments, the exact difference between stimuli were used.\nPWT was measured according to the Schematics in FIG. 9 (prevention) and FIG. 10 (reversal study).\n(§2) Data was analyzed by analysis of variance (ANOVA) followed by post-hoc comparisons where appropriate. An effect will be considered significant if p<0.05. Data was represented as the mean and standard error to the mean (s.e.m). Statistical outliers that fell above or below 2 standard deviations of the mean were identified but not removed from the final analysis."}, "[2]": {"test": "Body weight during the chemotherapy induced neuropathic pain study (Example 5)", "details": "paclitaxel days 1, 3, 5, 7; test compound on day 14; repeated measures ANOVA", "method": "as §1, with “(from Envigo, Ind., USA)” for “from Envigo”, “12 h/12 h” for “12/12”, “phase. Every effort was made to minimize suffering of animals. Rats with baseline PWT less than 12 g were not included in the study. Rats were balanced by body weight and by their pre-paclitaxel PWT values. ANOVA found no significant differences between the treatment groups.” for “phase.”"}, "[3]": {"test": "Body weight, prevention study (Example 6)", "details": "10 mg/kg i.p. once daily for 7 or 14 days; effect seen from day 2 until day 11", "method": "Body weight (BW) was measured daily during treatment and twice a week after cessation of dosing.\nas §2"}}, "note": "Entries after “also recorded” stand apart in the source; their conditions may differ.", "data": [{"smiles": "Cc1nnc(-c2cc3c(OC[C@@H](O)CN4CCC(c5ccc(Cl)c(Cl)c5)CC4)cccc3o2)o1.Cl", "note": "[MIN-117, (2S)-1-(4-(3,4-dichlorophenyl)piperidin-1-yl)-3-((2-(5-methyl-1,3,4-oxadiazol-2-yl)benzofuran-4-yl)oxy)propan-2-ol hydrochloride]", "values": [{"measurement": "PWT compared to vehicle (in words)", "setting": "[1]; 1 mg/kg i.p. once daily for 2 weeks", "value": "significant increase in PWT; also recorded: significantly higher PWT"}, {"measurement": "PWT compared to vehicle (in words)", "setting": "[1]; 3 mg/kg i.p. once daily for 2 weeks", "value": "significant increase in PWT; also recorded: significantly higher PWT"}, {"measurement": "PWT compared to vehicle (in words)", "setting": "[1]; 10 mg/kg i.p. once daily for 2 weeks", "value": "significant increase in PWT; also recorded: significantly higher PWT"}, {"measurement": "PWT after cessation of treatment (in words)", "setting": "[1]; 1, 3 and 10 mg/kg i.p., day 35, one week after cessation of treatment", "value": "no analgesic effects; also recorded: returned to vehicle levels"}, {"measurement": "Body weight during the study, between groups (in words)", "setting": "[2]", "value": "no significant difference between groups"}, {"measurement": "Body weight compared to vehicle (in words)", "setting": "[3]", "value": "decrease in body weight"}]}]}
